This note sets out measurements from patent US20040010001A1, “Methods and compositions for modulating cell proliferation and cell death” (priority 1999, published 2004).

In this assay the test system is Human prostate PC3 tumor cells. Description: aFGF/bFGF-induced resistance and reversal by suramin, sulforhodamine B assay. It is filed as cell-based. On the procedure:
The experimental conditions are described briefly below. […] Cell number was measured using the sulforhodamine B assay which measures the total protein concentration. […] The FGF-induced resistance was dependent on the FGF concentrations, with a higher resistance at higher FGF concentrations.
(In general: In SRB staining, fixed cells bind dye roughly in proportion to their protein.)

Where [1] appears, read: no suramin, relative to control.
The mark [2] stands for this setting: read-out: IC50, Control (drug treatment only, without FGF treatment), No suramin, drug 96 hours.
The mark [3] stands for this setting: read-out: IC50, Control (without FGF treatment), Suramin, 15 μM, drug 96 hours with 15 μM suramin.
Setting [4] is: read-out: IC50, aFGF 0.3 ng/ml + bFGF 1 ng/ml, No suramin, FGF pretreatment 96 hours, drug 96 hours.
[5] abbreviates: read-out: IC50, aFGF 0.3 ng/ml + bFGF 1 ng/ml, With suramin, FGF pretreatment 96 hours, drug 96 hours with 15 micromolar suramin.
Where [6] appears, read: read-out: IC50, aFGF 1 ng/ml + bFGF 3 ng/ml, No suramin, FGF pretreatment 96 hours, drug 96 hours.
Setting [7] is: read-out: IC50, aFGF 1 ng/ml + bFGF 3 ng/ml, With suramin, FGF pretreatment 96 hours, drug 96 hours with 15 micromolar suramin.
Where [8] appears, read: Homo sapiens, read-out: IC50, Control (drug treatment only, without FGF treatment), No suramin, drug 96 hours.
Where [9] appears, read: Homo sapiens, read-out: IC50, aFGF 0.3 ng/ml + bFGF 1 ng/ml, No suramin, FGF pretreatment 96 hours, drug 96 hours.
The mark [10] stands for this setting: Homo sapiens, read-out: IC50, aFGF 1 ng/ml + bFGF 3 ng/ml, No suramin, FGF pretreatment 96 hours, drug 96 hours.

Molecules are shown by their SMILES. pIC50: −log10 of the molar value. Like-named read-outs stand apart in the source and are kept apart here.

Consider `Oc1ncc(N(CCCl)CCCl)c(O)n1` [Uracil Mustard], for which the “Resistance, Folds, aFGF 0.3 ng/ml + bFGF 1 ng/ml” value was determined as 1.41 Folds and the “Resistance, Folds, aFGF 1 ng/ml + bFGF 3 ng/ml” value was 2.24 Folds. In addition, the pIC50 (Homo sapiens, 96 h, read-out: IC50, Control (drug treatment only, without FGF treatment), No suramin) is 4.52. For the same compound, for the setting “Homo sapiens, 96 h, read-out: IC50, aFGF 0.3 ng/ml + bFGF 1 ng/ml, No suramin”, the pIC50 is 4.37. Further, the pIC50 (Homo sapiens, 96 h, read-out: IC50, aFGF 1 ng/ml + bFGF 3 ng/ml, No suramin) was 4.17. In addition, the pIC50 (read-out: IC50, Control (without FGF treatment), Suramin, 15 μM) is 4.42. Also, the pIC50 (read-out: IC50, aFGF 0.3 ng/ml + bFGF 1 ng/ml, With suramin) is 4.42. Besides, the pIC50 (read-out: IC50, aFGF 1 ng/ml + bFGF 3 ng/ml, With suramin) is 4.46.
In the case of `Nc1ccn([C@@H]2O[C@H](CO)[C@@H](O)[C@@H]2O)c(=O)n1` [Cytarabine/Ara-C, Cytarabine], under setting [1], the “Resistance, Folds, aFGF 0.3 ng/ml + bFGF 1 ng/ml” value stood at 3.26 Folds. Moreover, under setting [1], the “Resistance, Folds, aFGF 1 ng/ml + bFGF 3 ng/ml” value worked out at 8.41 Folds. Further, the pIC50 under setting [2] was 6.41; the pIC50 under setting [3] was 6.34; the pIC50 under setting [4] was 5.90; the pIC50 under setting [5] was 6.38; the pIC50 under setting [6] was 5.49; the pIC50 under setting [7] was 6.35.
Take `N[C@H](C(=O)O)[C@@H]1CC(Cl)=NO1` [Acivicin]: the pIC50 was 5.80 under setting [8]; 5.48 under setting [9]; 5.26 under setting [10]; 5.89 under setting [3]; 5.78 under setting [5]; 5.79 under setting [7]. In addition, the “Resistance, Folds, aFGF 0.3 ng/ml + bFGF 1 ng/ml” value under setting [1] was found to be 2.11 Folds. Further, the “Resistance, Folds, aFGF 1 ng/ml + bFGF 3 ng/ml” value under setting [1] is recorded as 3.49 Folds.
For the compound `CCC1=C[C@@H]2CN(C1)Cc1c([nH]c3ccccc13)[C@@](C(=O)OC)(c1cc3c(cc1OC)N(C)[C@H]1[C@@](O)(C(=O)OC)[C@H](OC(C)=O)[C@]4(CC)C=CCN5CC[C@]31[C@@H]54)C2` [Vinorelbin], the “Resistance, Folds, aFGF 0.3 ng/ml + bFGF 1 ng/ml” value under setting [1] is recorded as 1.32 Folds. The “Resistance, Folds, aFGF 1 ng/ml + bFGF 3 ng/ml” value under setting [1] amounted to 2.26 Folds. Further, the pIC50 reads like this: under setting [2], 8.40; under setting [3], 8.48; under setting [4], 8.28; under setting [5], 8.44; under setting [6], 8.05; under setting [7], 8.42.
Take `Nc1ncn([C@H]2C[C@H](O)[C@@H](CO)O2)c(=O)n1` [5-Aza 2′-deoxycytidine]: the pIC50 reads like this: under setting [8], 5.18; under setting [9], 4.85; under setting [10], 4.58; under setting [3], 5.21; under setting [5], 5.18; under setting [7], 5.19. The “Resistance, Folds, aFGF 0.3 ng/ml + bFGF 1 ng/ml” value under setting [1] was 2.12 Folds. Under setting [1], the “Resistance, Folds, aFGF 1 ng/ml + bFGF 3 ng/ml” value is 3.96 Folds.
Consider `O=C(CCBr)N1CCN(C(=O)CCBr)CC1` [Pipobroman], for which the pIC50 by setting is: under setting [8], 3.87; under setting [9], 3.71; under setting [10], 3.74; under setting [3], 4.03; under setting [5], 3.90; under setting [7], 3.96. Moreover, the “Resistance, Folds, aFGF 0.3 ng/ml + bFGF 1 ng/ml” value under setting [1] was 1.42 Folds. The “Resistance, Folds, aFGF 1 ng/ml + bFGF 3 ng/ml” value under setting [1] was found to be 1.35 Folds.
Turning to `C/C=C1\NC(=O)[C@H]2CSSCC/C=C/[C@H](CC(=O)N[C@H](C(C)C)C(=O)N2)OC(=O)[C@H](C(C)C)NC1=O` [Depsipeptide], the pIC50 reads like this: under setting [8], 8.95; under setting [9], 8.81; under setting [10], 8.67; under setting [3], 8.99; under setting [5], 8.94; under setting [7], 8.94. Also, the “Resistance, Folds, aFGF 0.3 ng/ml + bFGF 1 ng/ml” value under setting [1] stood at 1.38 Folds. Further, the “Resistance, Folds, aFGF 1 ng/ml + bFGF 3 ng/ml” value under setting [1] is 1.93 Folds.
In the case of `N[C@@H](Cc1ccc(N(CCCl)CCCl)cc1)C(=O)O` [Melphalan], the pIC50 by setting is: under setting [8], 5.38; under setting [9], 4.89; under setting [10], 4.61; under setting [3], 5.40; under setting [5], 5.35; under setting [7], 5.40. The “Resistance, Folds, aFGF 0.3 ng/ml + bFGF 1 ng/ml” value under setting [1] is given as 3.07 Folds. Further, under setting [1], the “Resistance, Folds, aFGF 1 ng/ml + bFGF 3 ng/ml” value is 5.87 Folds.
For the compound `Sc1ncnc2nc[nH]c12` [6-Mercaptopurine], the pIC50 under setting [8] was 5.80; the pIC50 under setting [9] is 5.52; the pIC50 under setting [10] was 5.26; the pIC50 under setting [3] was 5.78; the pIC50 under setting [5] is 5.77; the pIC50 under setting [7] was 5.81. Also, the “Resistance, Folds, aFGF 0.3 ng/ml + bFGF 1 ng/ml” value under setting [1] is 1.90 Folds. For the same compound, the “Resistance, Folds, aFGF 1 ng/ml + bFGF 3 ng/ml” value under setting [1] was 3.50 Folds.
On to `CC(=O)O[C@@]12CO[C@@H]1C[C@H](O)[C@@]1(C)C(=O)[C@H](O)C3=C(C)[C@@H](OC(=O)[C@H](O)[C@@H](NC(=O)OC(C)(C)C)c4ccccc4)C[C@@](O)([C@@H](OC(=O)c4ccccc4)[C@H]21)C3(C)C` [Taxotere], for which the pIC50 under setting [8] was 8.64 and the pIC50 under setting [3] was 8.69.
As for `CC[C@]1(O)C[C@@H]2CN(CCc3c([nH]c4ccccc34)[C@@](C(=O)OC)(c3cc4c(cc3OC)N(C)[C@H]3[C@@](O)(C(N)=O)[C@H](O)[C@]5(CC)C=CCN6CC[C@]43[C@@H]65)C2)C1` [Vindesine], the pIC50 is 9.41 under setting [8]; 9.28 under setting [9]; 9.09 under setting [10]; 9.46 under setting [3]; 9.43 under setting [5]; 9.37 under setting [7].
Take `CO[C@@]12[C@H](COC(N)=O)C3=C(C(=O)C(C)=C(N)C3=O)N1C[C@@H]1N[C@@H]12` [Mitomycin C]: the pIC50 reads like this: under setting [8], 5.79; under setting [9], 5.51; under setting [10], 5.33; under setting [3], 5.82; under setting [5], 5.77; under setting [7], 5.80.
Consider `CN(Cc1cnc2nc(N)nc(N)c2n1)c1ccc(C(=O)N[C@@H](CCC(=O)O)C(=O)O)cc1` [Methotrexate], for which the pIC50 runs as follows: under setting [8], 4.49; under setting [9], 4.22; under setting [10], 4.09; under setting [3], 4.54; under setting [5], 4.51; under setting [7], 4.47. In addition, the “Resistance, Folds, aFGF 0.3 ng/ml + bFGF 1 ng/ml” value under setting [1] was 1.89 Folds. Besides, the “Resistance, Folds, aFGF 1 ng/ml + bFGF 3 ng/ml” value under setting [1] was found to be 2.51 Folds.
Consider `O=NN(CCCl)C(=O)NCCCl` [BCNU], for which the pIC50 was 4.47 under setting [8]; 4.28 under setting [9]; 4.12 under setting [10]; 4.47 under setting [3]; 4.44 under setting [5]; 4.48 under setting [7]. For the same compound, the “Resistance, Folds, aFGF 0.3 ng/ml + bFGF 1 ng/ml” value under setting [1] stood at 1.56 Folds. Besides, under setting [1], the “Resistance, Folds, aFGF 1 ng/ml + bFGF 3 ng/ml” value is reported as 2.26 Folds.
Regarding `Nc1nc2nc[nH]c2c(=S)[nH]1` [6-Thioguanine], the pIC50 is, setting by setting: under setting [8], 6.55; under setting [9], 6.02; under setting [10], 5.84; under setting [3], 6.49; under setting [5], 6.49; under setting [7], 6.52. For the same compound, the “Resistance, Folds, aFGF 0.3 ng/ml + bFGF 1 ng/ml” value under setting [1] worked out at 3.43 Folds. Further, the “Resistance, Folds, aFGF 1 ng/ml + bFGF 3 ng/ml” value under setting [1] is on record as 5.14 Folds.
For the compound `Nc1ccn([C@@H]2O[C@H](CO)[C@@H](O)C2(F)F)c(=O)n1` [Gemcitabine], the pIC50 was 8.16 under setting [8]; 8.02 under setting [9]; 7.88 under setting [10]; 8.16 under setting [3]; 8.21 under setting [5]; 8.22 under setting [7]. For the same compound, the “Resistance, Folds, aFGF 0.3 ng/ml + bFGF 1 ng/ml” value under setting [1] stood at 1.41 Folds. Also, the “Resistance, Folds, aFGF 1 ng/ml + bFGF 3 ng/ml” value under setting [1] was 1.91 Folds.
Take `N[C@@H](CN(O)N=O)C(=O)O` [Alanosine]: the pIC50 reads like this: under setting [8], 5.69; under setting [9], 5.38; under setting [10], 5.15; under setting [3], 5.67; under setting [5], 5.62; under setting [7], 5.67. For the same compound, under setting [1], the “Resistance, Folds, aFGF 0.3 ng/ml + bFGF 1 ng/ml” value amounted to 2.03 Folds. Under setting [1], the “Resistance, Folds, aFGF 1 ng/ml + bFGF 3 ng/ml” value came out at 3.44 Folds.
